# Measurements as given in PMC7827406, “Structure–Activity Relationship (SAR) Study of Spautin-1 to Entail the Discovery of Novel NEK4 Inhibitors” (International Journal of Molecular Sciences, 2021).
# Where two headings read alike, the source gives them in different places.
# Key:
# Experiment in all cases: biochemical
# Parameters in all cases: Eurofins KinaseProfiler full panel at Km ATP, residual kinase activity (%) relative to DMSO
# Tie2(Y897S)(h) = target: T1, Tie2(Y897S)(h) (Homo sapiens, UniProt Q02763, Y897S)
# T1 construct: gene TEK
# T1 sequence (Q02763 whole entry Y897S): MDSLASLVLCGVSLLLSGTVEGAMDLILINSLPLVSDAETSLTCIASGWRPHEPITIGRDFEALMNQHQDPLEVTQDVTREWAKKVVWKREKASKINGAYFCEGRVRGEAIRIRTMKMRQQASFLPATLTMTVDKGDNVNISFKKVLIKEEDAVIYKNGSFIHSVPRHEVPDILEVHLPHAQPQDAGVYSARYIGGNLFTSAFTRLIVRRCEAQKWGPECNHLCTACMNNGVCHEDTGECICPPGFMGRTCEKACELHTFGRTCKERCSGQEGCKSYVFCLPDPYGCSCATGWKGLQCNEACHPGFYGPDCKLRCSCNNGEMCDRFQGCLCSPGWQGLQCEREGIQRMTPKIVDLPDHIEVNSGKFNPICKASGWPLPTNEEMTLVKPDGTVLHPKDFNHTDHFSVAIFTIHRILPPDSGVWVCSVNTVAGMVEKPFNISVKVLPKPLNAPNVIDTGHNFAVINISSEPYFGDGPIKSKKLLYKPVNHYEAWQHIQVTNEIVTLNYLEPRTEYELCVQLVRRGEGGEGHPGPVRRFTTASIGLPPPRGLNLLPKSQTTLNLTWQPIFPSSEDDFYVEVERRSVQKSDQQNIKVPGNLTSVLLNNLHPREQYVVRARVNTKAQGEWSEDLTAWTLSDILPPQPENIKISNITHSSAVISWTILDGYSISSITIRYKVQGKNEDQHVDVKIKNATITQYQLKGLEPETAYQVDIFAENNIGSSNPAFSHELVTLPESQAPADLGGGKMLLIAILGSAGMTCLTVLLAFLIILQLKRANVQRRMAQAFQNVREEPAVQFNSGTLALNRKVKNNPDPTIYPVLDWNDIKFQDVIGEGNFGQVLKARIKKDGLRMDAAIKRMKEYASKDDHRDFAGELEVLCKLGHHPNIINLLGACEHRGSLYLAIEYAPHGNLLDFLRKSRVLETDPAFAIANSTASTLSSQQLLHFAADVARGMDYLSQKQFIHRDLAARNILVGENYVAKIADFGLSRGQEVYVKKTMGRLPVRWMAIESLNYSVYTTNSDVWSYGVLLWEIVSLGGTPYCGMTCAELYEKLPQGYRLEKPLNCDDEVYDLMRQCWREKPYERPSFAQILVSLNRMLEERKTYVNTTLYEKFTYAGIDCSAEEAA
# Procedure, shortened: (§1)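 Compounds screened at 10 µM in radiometric kinase activity assays at Km ATP, reported as remaining kinase activity (%). A KINOMEscan competition-binding screen at 10 µM measured DNA-tagged kinase retained on immobilized active-site ligand by qPCR.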
# Rsk4(h) = target: T2, Rsk4(h) (Homo sapiens, UniProt Q9UK32)
# T2 construct: gene RPS6KA6
# T2 sequence (Q9UK32 whole entry): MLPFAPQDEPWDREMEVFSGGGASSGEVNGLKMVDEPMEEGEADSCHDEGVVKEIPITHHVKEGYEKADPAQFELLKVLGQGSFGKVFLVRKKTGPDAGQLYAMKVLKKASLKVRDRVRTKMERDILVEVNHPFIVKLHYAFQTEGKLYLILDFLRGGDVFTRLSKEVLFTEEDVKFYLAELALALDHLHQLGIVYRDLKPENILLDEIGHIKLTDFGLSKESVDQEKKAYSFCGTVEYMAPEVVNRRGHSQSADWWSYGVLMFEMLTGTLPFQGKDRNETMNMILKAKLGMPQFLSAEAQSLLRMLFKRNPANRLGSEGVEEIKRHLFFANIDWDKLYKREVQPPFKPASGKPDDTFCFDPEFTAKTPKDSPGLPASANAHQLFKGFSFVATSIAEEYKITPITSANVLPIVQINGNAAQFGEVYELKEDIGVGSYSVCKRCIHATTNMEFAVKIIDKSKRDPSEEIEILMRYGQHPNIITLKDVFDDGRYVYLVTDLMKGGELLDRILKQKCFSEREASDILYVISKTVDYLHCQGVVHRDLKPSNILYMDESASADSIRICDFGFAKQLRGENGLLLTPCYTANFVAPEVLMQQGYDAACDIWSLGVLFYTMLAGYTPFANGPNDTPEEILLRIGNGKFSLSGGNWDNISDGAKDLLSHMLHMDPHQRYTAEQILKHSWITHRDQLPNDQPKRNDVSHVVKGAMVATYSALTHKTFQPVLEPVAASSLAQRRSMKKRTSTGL
# Procedure, shortened: as §1
# MAP4K3(h) = target: T3, MAP4K3(h) (Homo sapiens, UniProt Q8IVH8)
# T3 sequence (Q8IVH8 1-894): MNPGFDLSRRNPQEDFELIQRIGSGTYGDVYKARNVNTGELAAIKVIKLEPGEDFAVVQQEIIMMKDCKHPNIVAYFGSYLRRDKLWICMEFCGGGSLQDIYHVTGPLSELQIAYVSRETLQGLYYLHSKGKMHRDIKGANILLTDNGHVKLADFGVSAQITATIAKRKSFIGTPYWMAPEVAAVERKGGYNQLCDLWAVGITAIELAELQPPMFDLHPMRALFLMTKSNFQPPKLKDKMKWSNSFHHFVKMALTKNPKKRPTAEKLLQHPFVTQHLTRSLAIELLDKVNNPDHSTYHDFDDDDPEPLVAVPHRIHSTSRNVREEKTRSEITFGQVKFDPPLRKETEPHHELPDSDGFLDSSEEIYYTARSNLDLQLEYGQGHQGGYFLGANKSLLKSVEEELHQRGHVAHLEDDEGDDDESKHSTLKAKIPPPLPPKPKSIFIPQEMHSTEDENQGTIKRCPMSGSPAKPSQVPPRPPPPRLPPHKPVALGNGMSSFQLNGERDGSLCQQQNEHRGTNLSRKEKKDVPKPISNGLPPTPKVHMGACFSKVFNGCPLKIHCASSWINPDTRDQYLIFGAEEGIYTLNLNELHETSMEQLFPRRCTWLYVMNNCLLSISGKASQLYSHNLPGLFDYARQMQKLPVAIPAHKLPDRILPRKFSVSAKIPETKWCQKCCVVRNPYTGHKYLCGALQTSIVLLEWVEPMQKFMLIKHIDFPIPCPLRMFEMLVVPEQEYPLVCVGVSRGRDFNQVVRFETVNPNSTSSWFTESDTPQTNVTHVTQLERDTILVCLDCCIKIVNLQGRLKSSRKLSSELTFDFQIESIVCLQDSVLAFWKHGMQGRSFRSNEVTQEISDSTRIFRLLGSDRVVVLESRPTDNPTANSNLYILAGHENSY
# Procedure, shortened: as §1
# Fer(h) = Fer(h) (Homo sapiens, UniProt P16591)
# Chain of Fer(h) (P16591 whole entry): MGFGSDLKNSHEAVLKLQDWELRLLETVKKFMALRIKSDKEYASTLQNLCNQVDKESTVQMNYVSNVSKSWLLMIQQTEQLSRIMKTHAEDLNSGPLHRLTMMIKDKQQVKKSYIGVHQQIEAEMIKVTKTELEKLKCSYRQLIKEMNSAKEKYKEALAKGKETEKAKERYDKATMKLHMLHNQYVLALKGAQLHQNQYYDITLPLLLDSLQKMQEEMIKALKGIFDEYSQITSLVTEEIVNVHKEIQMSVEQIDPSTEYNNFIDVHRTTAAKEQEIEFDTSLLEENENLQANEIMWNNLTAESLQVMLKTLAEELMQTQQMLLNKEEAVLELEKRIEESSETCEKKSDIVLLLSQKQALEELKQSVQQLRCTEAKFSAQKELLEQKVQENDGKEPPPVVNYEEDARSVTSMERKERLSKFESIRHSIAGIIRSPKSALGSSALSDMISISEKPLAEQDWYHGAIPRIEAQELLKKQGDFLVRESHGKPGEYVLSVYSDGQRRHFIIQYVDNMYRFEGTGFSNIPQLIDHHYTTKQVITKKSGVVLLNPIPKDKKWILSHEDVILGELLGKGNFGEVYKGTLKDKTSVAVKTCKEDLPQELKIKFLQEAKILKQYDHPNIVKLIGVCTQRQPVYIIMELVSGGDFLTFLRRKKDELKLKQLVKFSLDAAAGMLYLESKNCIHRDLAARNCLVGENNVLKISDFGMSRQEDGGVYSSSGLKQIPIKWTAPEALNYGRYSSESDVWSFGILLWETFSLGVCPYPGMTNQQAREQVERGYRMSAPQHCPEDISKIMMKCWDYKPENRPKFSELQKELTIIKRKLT
# Procedure, shortened: as §1
# EphB1(h) = target: T4, EphB1(h) (Homo sapiens, UniProt P54762)
# T4 sequence (P54762 1-984): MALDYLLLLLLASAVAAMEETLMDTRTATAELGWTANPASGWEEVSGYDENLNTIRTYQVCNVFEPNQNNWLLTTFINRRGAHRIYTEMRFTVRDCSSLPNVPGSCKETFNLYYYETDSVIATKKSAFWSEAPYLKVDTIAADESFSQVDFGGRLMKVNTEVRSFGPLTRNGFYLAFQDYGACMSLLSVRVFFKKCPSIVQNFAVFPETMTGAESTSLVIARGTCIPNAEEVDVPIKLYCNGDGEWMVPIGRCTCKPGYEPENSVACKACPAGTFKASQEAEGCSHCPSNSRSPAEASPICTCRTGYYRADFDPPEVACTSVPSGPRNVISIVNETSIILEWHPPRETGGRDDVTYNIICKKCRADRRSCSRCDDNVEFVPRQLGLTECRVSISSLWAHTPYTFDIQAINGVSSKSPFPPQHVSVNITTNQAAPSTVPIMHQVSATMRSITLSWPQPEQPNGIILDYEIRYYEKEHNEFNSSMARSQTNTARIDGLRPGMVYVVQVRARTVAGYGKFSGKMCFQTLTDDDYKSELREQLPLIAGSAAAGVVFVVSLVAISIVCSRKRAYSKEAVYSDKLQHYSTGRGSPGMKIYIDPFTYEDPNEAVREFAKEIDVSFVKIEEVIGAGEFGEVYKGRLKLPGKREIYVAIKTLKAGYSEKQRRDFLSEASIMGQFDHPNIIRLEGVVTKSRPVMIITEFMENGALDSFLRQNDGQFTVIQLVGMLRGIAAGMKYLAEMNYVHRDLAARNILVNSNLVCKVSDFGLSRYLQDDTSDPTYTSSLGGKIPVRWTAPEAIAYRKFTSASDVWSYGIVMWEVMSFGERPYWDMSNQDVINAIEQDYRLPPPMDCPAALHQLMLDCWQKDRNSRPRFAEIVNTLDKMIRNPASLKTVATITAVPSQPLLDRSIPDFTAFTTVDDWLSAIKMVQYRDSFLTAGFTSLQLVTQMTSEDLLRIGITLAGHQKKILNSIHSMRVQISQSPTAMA
# Procedure, shortened: as §1
# Src(1-530)(h) = target: T5, Src(1-530)(h) (Homo sapiens, UniProt P12931)
# T5 construct: residues 1-530
# T5 sequence (P12931 whole entry, the tested form may be a part): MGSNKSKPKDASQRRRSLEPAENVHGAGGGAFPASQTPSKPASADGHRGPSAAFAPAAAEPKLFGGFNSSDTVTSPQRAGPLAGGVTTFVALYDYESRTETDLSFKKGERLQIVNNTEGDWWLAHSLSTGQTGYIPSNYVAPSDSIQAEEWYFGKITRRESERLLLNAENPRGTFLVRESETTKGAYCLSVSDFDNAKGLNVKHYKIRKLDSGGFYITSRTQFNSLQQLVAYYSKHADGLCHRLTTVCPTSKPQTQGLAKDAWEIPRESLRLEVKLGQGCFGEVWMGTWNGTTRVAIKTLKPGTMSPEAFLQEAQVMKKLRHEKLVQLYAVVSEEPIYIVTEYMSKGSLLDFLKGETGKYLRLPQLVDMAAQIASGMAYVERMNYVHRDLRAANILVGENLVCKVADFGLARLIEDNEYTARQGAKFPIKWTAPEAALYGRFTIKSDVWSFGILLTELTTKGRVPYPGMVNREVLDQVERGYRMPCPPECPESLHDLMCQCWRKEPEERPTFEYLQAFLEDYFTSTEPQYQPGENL
# Procedure, shortened: as §1
# [1] = read-out: Residual activity (%) Spautin-1 5aa
# [2] = read-out: Residual activity (%) 5as
# [3] = read-out: Residual activity (%) 5at
# [4] = read-out: Residual activity (%) 5ay
smiles,measurement,setting,value
"Fc1ccc(CNc2ncnc3ccc(F)cc23)cc1 [5aa, 6-Fluoro-N-(4-fluorobenzyl)-4-Quinazolinamine]",remaining activity at 10 µM,Tie2(Y897S)(h); [1],88%
same,remaining activity at 10 µM,Rsk4(h); [1],117%
same,remaining activity at 10 µM,MAP4K3(h); [1],99%
same,remaining activity at 10 µM,Fer(h); [1],76%
same,remaining activity at 10 µM,EphB1(h); [1],84%
same,remaining activity at 10 µM,Src(1-530)(h); [1],107%
"Fc1ccc(CCNc2ncnc3ccc(F)cc23)cc1 [5as, 6-Fluoro-N-[2-(4-Fluorophenyl)Ethyl]-4-Quinazolinamine]",remaining activity at 10 µM,Tie2(Y897S)(h); [2],94%
same,remaining activity at 10 µM,Rsk4(h); [2],81%
same,remaining activity at 10 µM,MAP4K3(h); [2],87%
same,remaining activity at 10 µM,Fer(h); [2],98%
same,remaining activity at 10 µM,EphB1(h); [2],90%
same,remaining activity at 10 µM,Src(1-530)(h); [2],101%
"Fc1ccc2ncnc(NCCc3ccc(Cl)cc3)c2c1 [5at, N-[2-(4-Chlorophenyl)Ethyl]-6-Fluoro-4-Quinazolinamine]",remaining activity at 10 µM,Tie2(Y897S)(h); [3],85%
same,remaining activity at 10 µM,Rsk4(h); [3],92%
same,remaining activity at 10 µM,MAP4K3(h); [3],93%
same,remaining activity at 10 µM,Fer(h); [3],94%
same,remaining activity at 10 µM,EphB1(h); [3],95%
same,remaining activity at 10 µM,Src(1-530)(h); [3],81%
"COc1ccc2ncnc(Nc3cccc(F)c3)c2c1 [5ay, N-(3-Fluorophenyl)-6-Methoxy-4-Quinazolinamine]",remaining activity at 10 µM,Tie2(Y897S)(h); [4],78%
same,remaining activity at 10 µM,Rsk4(h); [4],100%
same,remaining activity at 10 µM,MAP4K3(h); [4],87%
same,remaining activity at 10 µM,Fer(h); [4],80%
same,remaining activity at 10 µM,EphB1(h); [4],88%
same,remaining activity at 10 µM,Src(1-530)(h); [4],90%
